assay: recombinant UMI read abundance after kanamycin selection (control-corrected) (log10(CPM+1)); higher = more efficient recombination; extreme values may be limits of the assay; sequences stand for … in AGTGCAGAGAAAATCGGCCAGTTTTCTCTGCCTGCAGTCCGCATGCCGTGGGACCCCTTGGGTTCTAACCTGTTGCCTAGATTTATGCAGCGGACTGCCTTTCTCCCAAAGTGATAAACCGG…AGGTTGGTTTCACT; site = the 11-nt donor
In short: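 Values, expressed as log10(CPM+1), derive from recombinant UMI counts converted to CPM, averaged across replicates and scaled by control-derived factors. Plating was with IPTG (0.07 mM) plus kanamycin or unselected, two replicates each. The screen pooled donor and donor-binding-loop pairs for the IS621 bridge recombinase in Escherichia coli.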
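Also: IS621 bridge recombinase in Escherichia coli cells against a fixed T5 target plasmid.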

Sequence	recombinant UMI read abundance (log10)
TCATGCTCATGGACCGGTTTTCCCGGTAATCCGTATTTGCA (site TCATGCTCTTG)	0.764
CAATGCTCATGGACCGGTTTTCCCGGTAATCCGTATTTGAA (site CAATGCTCTTT)	2.57
AACCGTCCATGGACCGGTTTTCCCGGTAATCCGTATTTGAT (site AACCGTACTAT)	0.0096
GTGATGTCATGGACCGGTTTTCCCGGTAATCCGTATTTGGA (site GTGATGTCTTC)	2.57
ACCGTATCATGGACCGGTTTTCCCGGTAATCCGTATTTGCA (site ACTGTATCTTG)	0.874
CGGAATCCATGGACCGGTTTTCCCGGTAATCCGTATTTGTT (site TGGAATCCTCA)	0.00675
CTTAGAACATGGACCGGTTTTCCCGGTAATCCGTATTTGGC (site CTTAGAACTGC)	1.4
AGAAAGGCATGGACCGGTTTTCCCGGTAATCCGTATTTGCA (site AGAAAGGCTCG)	0.889
ATTGAGACATGGACCGGTTTTCCCGGTAATCCGTATTTGTT (site ATTGAGACTAA)	1.71
AATAGTGCATGGACCGGTTTTCCCGGTAATCCGTATTTGGT (site AGTAGTGCTAC)	0.602
GTATGAACATGGACCGGTTTTCCCGGTAATCCGTATTTGTA (site GTATGTACTTA)	0
AGATTATCATGGACCGGTTTTCCCGGTAATCCGTATTTGCA (site ACAGTATCTTG)	2.54
CCCAGGGCATGGACCGGTTTTCCCGGTAATCCGTATTTGTG (site CCCAGGGCTCA)	0.475
TCCAATTCATGGACCGGTTTTCCCGGTAATCCGTATTTGCA (site TCCAATTCTAG)	0
CTCGTAACATGGACCGGTTTTCCCGGTAATCCGTATTTGAC (site CTCGTAACTGT)	2.56
CACTGGGCATGGACCGGTTTTCCCGGTAATCCGTATTTGGA (site CACTTGGCTTC)	0.0159
CGGAGTCCATGGACCGGTTTTCCCGGTAATCCGTATTTGTT (site CGGAGTCCTAA)	0.684
GTTCGAGCATGGACCGGTTTTCCCGGTAATCCGTATTTGCT (site GTTCGAGCTGG)	0.928
CTTCTCTCATGGACCGGTTTTCCCGGTAATCCGTATTTGTA (site CTTTTCTCTTA)	0
ACCTAGACATGGACCGGTTTTCCCGGTAATCCGTATTTGCG (site ACCTAGACTCG)	1.58
ACTGTGTCATGGACCGGTTTTCCCGGTAATCCGTATTTGCA (site ACAGTATCTTG)	2.5
GGGGAGTCATGGACCGGTTTTCCCGGTAATCCGTATTTGCC (site AGGGAGTCTGG)	1.14
ATCAATACATGGACCGGTTTTCCCGGTAATCCGTATTTGAC (site ATCAATACTGT)	1.74
TACTCAGCATGGACCGGTTTTCCCGGTAATCCGTATTTGGA (site TACTCAGCTTC)	0.619
TTACAAACATGGACCGGTTTTCCCGGTAATCCGTATTTGAG (site TTACAAACTCT)	2.21

Sequence	recombinant UMI read abundance (log10)
TCCTTGACATGGACCGGTTTTCCCGGTAATCCGTATTTGCT (site TGCTTGACTAG)	0
TGTACCGCATGGACCGGTTTTCCCGGTAATCCGTATTTGGG (site TGTACCGCTCC)	0.0251
ACACTATCATGGACCGGTTTTCCCGGTAATCCGTATTTGCA (site ACAGTATCTTG)	1.89
CGTACCACATGGACCGGTTTTCCCGGTAATCCGTATTTGAG (site CGTACCACTCT)	1.06
AGCCGTTCATGGACCGGTTTTCCCGGTAATCCGTATTTGAC (site AGCCTTTCTGT)	0
ACATAAGCATGGACCGGTTTTCCCGGTAATCCGTATTTGAA (site ACATAAGCTTT)	2.7
GTAGTCTCATGGACCGGTTTTCCCGGTAATCCGTATTTGCG (site GTAGTCTCTCG)	3
GTTGTACCATGGACCGGTTTTCCCGGTAATCCGTATTTGGT (site GTTGTACCTAC)	0
CGACCAACATGGACCGGTTTTCCCGGTAATCCGTATTTGAT (site GAGGGGCCTTC)	0.006
CCCAGGACATGGACCGGTTTTCCCGGTAATCCGTATTTGCG (site CCCAGGACTCG)	0.893
CCCGGCCCATGGACCGGTTTTCCCGGTAATCCGTATTTGCA (site CCCGGCCCTTG)	0
GCTAATACATGGACCGGTTTTCCCGGTAATCCGTATTTGGC (site CCTAATACTGC)	0.772
GAATGACCATGGACCGGTTTTCCCGGTAATCCGTATTTGCA (site GAATGACCTTG)	1.13
AGACTTTCATGGACCGGTTTTCCCGGTAATCCGTATTTGAC (site AGGCTTTCTGT)	0.503
GTGGAAGCATGGACCGGTTTTCCCGGTAATCCGTATTTGAA (site GTGGAAGCTTT)	2.55
CTTAAAGCATGGACCGGTTTTCCCGGTAATCCGTATTTGAT (site CATAAAGCTAT)	0
CAGGAATCATGGACCGGTTTTCCCGGTAATCCGTATTTGCG (site GAGGAATCTCG)	0.395
GGTCCAACATGGACCGGTTTTCCCGGTAATCCGTATTTGTA (site GGTCCGACTTA)	0.0188
TCCACCGCATGGACCGGTTTTCCCGGTAATCCGTATTTGCG (site TCAACCGCTCG)	0.00833
CCGGAAACATGGACCGGTTTTCCCGGTAATCCGTATTTGCA (site CGGGAAACTTG)	0
CGTTAGTCATGGACCGGTTTTCCCGGTAATCCGTATTTGAG (site CGTTAGGCTCT)	0.0227
CTGTACACATGGACCGGTTTTCCCGGTAATCCGTATTTGCT (site CTTTACACTAG)	0.828
GTTAGAACATGGACCGGTTTTCCCGGTAATCCGTATTTGGC (site GTTAGAACTAC)	0.00468
GATTATCCATGGACCGGTTTTCCCGGTAATCCGTATTTGAT (site GATTATCCTAA)	0.0183
GATTATCCATGGACCGGTTTTCCCGGTAATCCGTATTTGAT (site GATTATCCTAG)	0

Sequence	recombinant UMI read abundance (log10)
AATTATGCATGGACCGGTTTTCCCGGTAATCCGTATTTGGA (site AATTATCCTTC)	0.447
CGCCGTACATGGACCGGTTTTCCCGGTAATCCGTATTTGCT (site CGCCGTACTCG)	0.111
CGCCGTACATGGACCGGTTTTCCCGGTAATCCGTATTTGCT (site CGCTGTACTAG)	0
TAATGTCCATGGACCGGTTTTCCCGGTAATCCGTATTTGTA (site TAACGTCCTTA)	0.254
AGAAGGCCATGGACCGGTTTTCCCGGTAATCCGTATTTGAC (site ACAAGGCCTGT)	0
GGGGCACCATGGACCGGTTTTCCCGGTAATCCGTATTTGCG (site GGGGCACCTTG)	0
AATGTGTCATGGACCGGTTTTCCCGGTAATCCGTATTTGAG (site AATGTGTCTTT)	0.832
GTATTCGCATGGACCGGTTTTCCCGGTAATCCGTATTTGCG (site GTAATCGCTCG)	0.015
CCGTTTACATGGACCGGTTTTCCCGGTAATCCGTATTTGCA (site CCGTTTACTCG)	0
GTGAAGCCATGGACCGGTTTTCCCGGTAATCCGTATTTGGG (site GCGAAGCCTCC)	0.0113
CTGAATCCATGGACCGGTTTTCCCGGTAATCCGTATTTGTT (site CAGAATCCTAA)	0.0107
GGAAACCCATGGACCGGTTTTCCCGGTAATCCGTATTTGCC (site GGAAACCCTGG)	0
AACCTAGCATGGACCGGTTTTCCCGGTAATCCGTATTTGTT (site ATCCTAGCTAA)	0.0182
AAAGTGTCATGGACCGGTTTTCCCGGTAATCCGTATTTGAC (site AAAGTGTCTGT)	2.37
GACAAGCCATGGACCGGTTTTCCCGGTAATCCGTATTTGGT (site GACAATCCTAC)	0
GCACTCTCATGGACCGGTTTTCCCGGTAATCCGTATTTGGG (site GCACTCTCTCC)	0.647
CGGAATCCATGGACCGGTTTTCCCGGTAATCCGTATTTGTT (site CGGAACCCTAA)	0.157
GCGGAAACATGGACCGGTTTTCCCGGTAATCCGTATTTGCT (site GCGGAAACTAG)	2.19
GGGGCACCATGGACCGGTTTTCCCGGTAATCCGTATTTGCG (site GGGGCACCTAG)	0.0129
CGATCATCATGGACCGGTTTTCCCGGTAATCCGTATTTGCT (site CGATCATCTAC)	0
CGGAATCCATGGACCGGTTTTCCCGGTAATCCGTATTTGTT (site CGCAATCCTAC)	0
CTCAACACATGGACCGGTTTTCCCGGTAATCCGTATTTGCT (site CTCAACACTAG)	2
CGATCATCATGGACCGGTTTTCCCGGTAATCCGTATTTGCT (site CCATCATCTAG)	0.987
TCACGACCATGGACCGGTTTTCCCGGTAATCCGTATTTGCT (site TCACGACCTAG)	0
CGGAATCCATGGACCGGTTTTCCCGGTAATCCGTATTTGTT (site TGGAATGCTAA)	0.00525

From the supplement of paper PMC11208160
